assay: Determination of the log P values by HPLC (formic acid method); assay type: physicochemical; details: reversed-phase HPLC column (C 18), reversed-phase column (C 18), acidic range (pH 3.4), 55° C.
Procedure: 1) Description of Method for Determination of the Log P Values (Formic Acid Method)
Eluents for determination in the acidic range (pH 3.4):
Eluent A: acetonitrile+1 ml of formic acid/liter. Eluent B: water+0.9 ml of formic acid/liter.
The lambda max values were determined in the maxima of the chromatographic signals using the UV spectra from 200 nm to 400 nm.

Structure (SMILES)	chromatographic logP
N#Cc1ccc(C(F)(F)F)nc1-n1ccc(NC(=O)c2ccccc2C(F)(F)F)n1 [Compound I-1-569, N-{1-[3-Cyano-6-(trifluoromethyl)pyridin-2-yl]-1H-pyrazol-3-yl}-2-(trifluoromethyl)benzamide]	3.41
Cc1nc(-n2ccc(N)n2)c(F)cc1F [1-(3,5-Difluoro-6-methylpyridin-2-yl)-1H-pyrazole-3-amine]	1.25
O=C(Nc1cnn(-c2ncc(F)cc2F)n1)c1ccccc1C(F)(F)F [Compound I-2-63, N-[2-(3,5-Difluoropyridin-2-yl)-2H-1,2,3-triazol-4-yl]-2-(trifluoromethyl)benzamide]	2.38

same assay, conditions: reversed-phase column (C 18), acidic range (pH 3.4), 55° C.

Structure (SMILES)	log P	chromatographic logP
Cn1ncc(F)c1C(=O)Nc1ccn(-c2ncc(F)cc2F)n1 [Compound I-1-538]	2.03	
Cc1cc(C(=O)Nc2ccn(-c3ccccc3Cl)n2)c(C)o1 [Compound I-1-45]	3.05	
Cc1nn(C)c(C(=O)Nc2ccn(-c3c(F)cccc3F)n2)c1Cl [Compound I-1-307]	2.78	
Cc1nn(C)c(C(=O)Nc2ccn(-c3c(F)cccc3F)n2)c1Br [Compound I-1-298]	2.76	
Cc1ccccc1C(=O)Nc1ccn(-c2ccccc2Cl)n1 [Compound I-1-11]	2.86	
Cn1nc(C(F)(F)F)c(C(=O)Nc2ccn(-c3c(F)cccc3F)n2)c1C(F)(F)F [Compound I-1-238]	2.99	
CCc1nnccc1C(=O)Nc1ccn(-c2ncc(F)cc2F)n1 [Compound I-1-505]	1.50	
CCCc1c(Cl)c(C(=O)Nc2ccn(-c3ncc(F)cc3F)n2)nn1C [Compound I-1-532]	3.09	
O=C(Nc1ccn(-c2ncc(Cl)cc2Cl)n1)c1cccnc1Br [Compound I-1-431]	2.29	
CCc1ncccc1C(=O)Nc1ccn(-c2c(F)cccc2F)n1 [Compound I-1-275]	1.47	
O=C(Nc1ccn(-c2ccccc2Cl)n1)c1sccc1C(F)(F)F [Compound I-1-375]	3.15	
CC(C)Cn1ncc(I)c1C(=O)Nc1ccn(-c2c(F)cccc2F)n1 [Compound I-1-323]	3.47	
O=C(Nc1ccn(-c2ccccc2Br)n1)c1ccccc1C(F)(F)F [Compound I-1-50]	3.07	
O=C(Nc1ccn(-c2ncccc2F)n1)c1c(F)cccc1C(F)(F)F [Compound I-1-580]	2.36	
CCCn1cc(Cl)c(C(=O)Nc2ccn(-c3ncc(F)cc3F)n2)n1 [Compound I-1-533]	2.85	
O=C(c1cccc(Cl)c1Cl)N(C(=O)c1cccc(Cl)c1Cl)c1ccn(-c2ncc(F)cc2F)n1 [Compound I-1-477]	4.47	
O=C(Nc1cnn(-c2ncccc2Cl)n1)c1ccccc1Br [Compound I-2-13]	2.26	
O=C(Nc1ccn(-c2ccccc2Cl)n1)c1occc1I [Compound I-1-378]	2.96	
O=C(Nc1ccn(-c2ncccc2F)n1)c1ccccc1Cl [Compound I-1-129]	2.05	
O=C(Nc1ccn(-c2cccnc2Cl)n1)c1ccccc1Cl [Compound I-1-392]	2.13	
O=C(Nc1ccn(-c2ncccc2C(F)(F)F)n1)c1ccccc1Br [Compound I-1-424]	2.61	
O=C(Nc1ccn(-c2ncc(F)cn2)n1)c1c(F)cccc1F [Compound I-1-602]	1.83	
O=C(Nc1cnn(-c2ccccc2Br)n1)c1cccnc1C(F)(F)F [Compound I-2-8]	2.58	
N#Cc1ccccc1-n1ccc(NC(=O)c2ccccc2Cl)n1 [Compound I-1-8]	2.38	
Cc1cc(NC(=O)c2c(F)cccc2F)nn1-c1ccc(F)cc1F [Compound I-1-206]	3.42	

Structure (SMILES)	log P	chromatographic logP
Cc1cc(NC(=O)c2ccccc2Cl)nn1-c1ccc(F)cc1F [Compound I-1-212]	3.58	
Cc1nnsc1C(=O)Nc1ccn(-c2c(F)cccc2F)n1 [Compound I-1-326]	2.15	
Cc1nc(-n2ccc(NC(=O)c3cccnc3C(F)(F)F)n2)c(F)cc1F [Compound I-1-440]	2.38	
O=C(Nc1ccn(-c2c(F)cccc2F)n1)c1ccnn1C(F)F [Compound I-1-111]	2.40	
O=C(Nc1ccn(-c2ccccc2Cl)n1)c1cnccc1Cl [Compound I-1-381]	2.19	
Cn1nc([N+](=O)[O-])c(Cl)c1C(=O)Nc1ccn(-c2c(F)cccc2F)n1 [Compound I-1-312]	2.70	
O=C(Nc1ccn(-c2c(F)cccc2F)n1)c1cccc(F)c1C(F)(F)F [Compound I-1-287]	2.76	
Cc1noc(C(F)(F)F)c1C(=O)Nc1ccn(-c2c(F)cccc2F)n1 [Compound I-1-291]	2.80	
O=C(Nc1cnn(-c2ncccc2F)n1)c1cccnc1C(F)(F)F [Compound I-2-45]	1.76	
O=C(Nc1ccn(-c2cccc(F)c2F)n1)c1ccccc1Cl [Compound I-1-189]	3.01	
CCc1cc(NC(=O)c2cccnc2C(F)(F)F)nn1-c1ccc(F)cc1F [Compound I-1-204]	3.58	
O=C(Nc1nn(-c2ccccc2Cl)cc1I)c1ccccc1Cl [Compound I-1-30]	3.01	
O=C(Nc1ccn(-c2c(F)cccc2F)n1)c1ccccc1CC(F)(F)F [Compound I-1-610]	3.00	
Nc1ccn(-c2c(F)cccc2F)n1 [1-(2,6-Difluorophenyl)-1H-pyrazole-3-amine]		1.13
CC(C)Cc1nn(C)c(C(=O)Nc2ccn(-c3ncc(F)cc3F)n2)c1[N+](=O)[O-] [Compound I-1-508]	3.02	
Cc1ccsc1C(=O)Nc1ccn(-c2ncc(F)cc2F)n1 [Compound I-1-510]	2.38	
O=C(Nc1ccn(-c2cccc(F)c2F)n1)c1ncccc1C(F)(F)F [Compound I-1-68]	3.29	
Cn1ncc(Cl)c1C(=O)Nc1ccn(-c2ncc(F)cc2F)n1 [Compound I-1-529]	2.23	
O=C(Nc1ccn(-c2ncc(F)cc2F)n1)c1cccnc1C(F)F [Compound I-1-460]	1.77	
Cc1cnoc1C(=O)Nc1ccn(-c2c(F)cccc2F)n1 [Compound I-1-327]	2.24	
CC(=O)c1ccccc1C(=O)Nc1ccn(-c2ncc(F)cc2F)n1 [Compound I-1-481]	2.22	
O=C(Nc1ccn(-c2ncc(F)cc2F)n1)c1ccsc1I [Compound I-1-494]	2.53	
COc1ccccc1-n1ccc(NC(=O)c2cc(C)oc2C)n1 [Compound I-1-3]	2.87	
O=C(Nc1ccn(-c2c(F)cccc2F)n1)c1snnc1C1CC1 [Compound I-1-319]	2.68	
CCc1nn(C)c(C(=O)Nc2ccn(-c3c(F)cccc3F)n2)c1Cl [Compound I-1-316]	3.24	
